Literature values, collected in paper PMC11539907, “Cytotoxicity of norstictic acid derivatives, a depsidone from Ramalina anceps Nyl” (Turkish Journal of Chemistry, 2024).
Read-outs that look alike come from different tables or passages of the source.

Key:
[1] = system: HEP2 (laryngeal carcinoma) cells; set-up: method as in Bogo et al. (2020); details: ref Bogo et al. (2020), cited from earlier work
TNBC MDA-MB-231 cells = system: TNBC MDA-MB-231 cells; set-up: method as in PMID 26744260; details: cited from earlier work
[2] = system: PC-03 (prostate carcinoma) cells; set-up: method as in Bogo et al. (2020); details: ref Bogo et al. (2020), cited from earlier work
[3] = system: MCF7 (breast carcinoma) cells; set-up: method as in Bogo et al. (2020); details: ref Bogo et al. (2020), cited from earlier work
[4] = system: MDA-MB-231/GFP cells implanted into athymic female nude mice; set-up: method as in PMID 26744260; details: cited from earlier work
[5] = system: 786-0 (kidney carcinoma) cells; set-up: method as in Bogo et al. (2020); details: ref Bogo et al. (2020), cited from earlier work
[6] = system: HT-29 (colon carcinoma) cells; set-up: method as in Bogo et al. (2020); details: ref Bogo et al. (2020), cited from earlier work
[7] = system: NIH/3T3 (mouse embryonic fibroblast) cells; set-up: method as in Bogo et al. (2020); details: NIH/3T3 normal cells; ref Bogo et al. (2020); read-out: growth inhibition (GI50); cited from earlier work
[8] = system: MCF-10A mammary epithelial cells; set-up: method as in PMID 26744260; details: cited from earlier work
[9] = system: B16-F10 (murine melanoma) cells; set-up: method as in Brandão et al. (2013); details: ref Brandão et al. (2013), cited from earlier work
[10] = system: UACC-62 (human melanoma) cells; details: cited from earlier work
[11] = system: tested tumor cells (786-0, MCF7, HT-29, PC-03, HEP2, B16-F10, UACC-62); details: cited from earlier work; for cytotoxic activity in words: panel of tumor cells

SMILES: Cc1cc(O)c(C=O)c2c1C(=O)Oc1c(C)c(O)c3c(c1O2)C(O)OC3=O (stereo not shown) [compound 1, Norstictic acid]
- selectivity index (SI) ([1]; 3T3 vs HEP2): 4.4
- GI50 ([1]; HEP2 cells, read-out: growth inhibition (GI50)): 157 µM
- proliferation, migration, and invasion in words (TNBC MDA-MB-231 cells): significantly suppressed the proliferation, migration, and invasion
- selectivity index (SI) ([2]; 3T3 vs PC-03 (PC-3)): 3.6
- GI50 ([2]; PC-03 cells, read-out: growth inhibition (GI50)): 191 µM
- selectivity index (SI) ([3]; 3T3 vs MCF7): 4.3
- GI50 ([3]; MCF7 cells, read-out: growth inhibition (GI50)): 162 µM
- in vivo effect on tumor growth in words [4]: tolerability and significant inhibitory effect
- selectivity index (SI) ([5]; 3T3 vs 786-0, from literature GI50 values): 0.9
- GI50 ([5]; 786-0 cells, read-out: growth inhibition (GI50)): 759 µM
- selectivity index (SI) ([6]; 3T3 vs HT-29, from literature GI50 values): 0.7
- GI50 ([6]; HT-29 cells, read-out: growth inhibition (GI50)): 916 µM
- GI50 [7]: 696 µM
- toxicity to nontumorogenic cells in words [8]: minimal toxicity
- selectivity index (SI) ([9]; 3T3 vs B16-F10): >4.1
- GI50 ([9]; B16-F10 cells, read-out: growth inhibition (GI50)): 168 µM
- selectivity index (SI) ([10]; 3T3 vs UACC-62, ref Brandão et al. (2013)): >7.6
- GI50 ([10]; UACC-62 cells, ref Brandão et al. (2013), read-out: growth inhibition (GI50)): 88.4 µM
- growth inhibition effect (GI50) ([10]; UACC-62 human melanoma cells): 32.9 µg/mL
- GI50 ([11]; MCF7, HEP2, PC-03, B16-F10, and UACC-62 cells, ref Bogo et al. (2020), Brandão et al. (2013), read-out: GI50, range): 88.4 to 191 µM
- cytotoxic activity in words ([11]; listed as Norstictic acid): poor activity
- cytotoxic activity in words ([11]; listed as norstictic acid): low cytotoxic activity
